Test system: Saccharomyces cerevisiae ABC16-Green Monster
Assay: growth inhibition at single dose (up to 150 µM), below the 70% cut-off for dose-response; higher = more potent
Settings: 18 h; 30 °C; YPD
Procedure, shortened: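 Values are percent growth inhibition of drug-sensitive S. cerevisiae ABC16-Green Monster cells. Cells grown overnight in YPD at 30 °C were diluted to log phase (OD600 0.1–0.2), and each library compound was added at a single dose of 150 µM to 200 µl culture per well in 96-well plates, in biological duplicates, beside untreated cultures. OD600 was read at 0 h and after 18 h at 30 °C, and compounds under 70% in both replicates were not taken to dose-response.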

Compound | growth inhibition at single dose [%]
COCc1[nH]n2c3cccc(=O)c-3nnc2c1-c1ccccc1 | < 70
O=C(Nc1ccc(N2CCN(Cc3ccccc3)CC2)cc1)c1cccs1 | < 70
CNc1snc(C)c1C(=O)NCCOc1ccc(OC)cc1 | < 70
Nc1ncnc2c1c(-c1cnc3ccccc3c1)nn2CC1CCNCC1 | < 70
COC(=O)c1ccc(Cl)c2c1C1C=CCC1C(c1cccc3ccccc13)N2 (configuration not stated) | < 70
O=C(Nc1cccc(-c2ccc(NCCCN3CCCC3)nc2)c1)c1ccccc1 | < 70
COc1ccc(C(=O)Nc2ccc3nc(N4CCCCC4)cc(C)c3c2)cc1OC | < 70
O=C(Nc1nc2cc3c(cc2s1)OCCO3)c1cccc2c[nH]nc12 | < 70
CC(=O)N1CCN(c2ccc(Oc3ccc(Cl)cc3O)cc2)CC1 | < 70
Cc1cc(C)c2cc(C(=O)NC3CCCCCCC3)[nH]c2c1 | < 70
CCc1ccc(/C=C/c2ccc3cccc(O)c3n2)cc1 | < 70
COc1ccc(-c2nn(C(C)C)c3ncnc(N)c23)cc1OC | < 70
CCN(CC)S(=O)(=O)N1CCN(C(=O)c2[nH]nc3ccccc23)CC1 | < 70
COCC(C)Nc1ncnc2scc(-c3ccc(OC)cc3)c12 (configuration not stated) | < 70
COc1ccc(Cl)cc1NC(=O)CN(C)C(=O)c1cnn(-c2ccccc2)n1 | < 70
COc1cc(CNC(=O)c2scnc2C)ccc1OC1CCCC1 | < 70
COc1ccc(CNC2CCN(c3ccc(NC(=O)c4cccc(Cl)c4)cc3)CC2)cc1OC | < 70
CNC(=O)c1ccc(CN(C2CC2)S(=O)(=O)c2ccc(C)cc2C)cc1 | < 70
Cc1csc(SCC(=O)c2cc(C)n(-c3ccccc3)c2C)n1 | < 70
CS(=O)(=O)c1ccc(C(=O)N(CC2CCCO2)c2nc3ccccc3s2)cc1[N+](=O)[O-] (configuration not stated) | < 70
COc1cc(NC(=O)COc2ccc3[nH]c4ccccc4c(=O)c3c2)c(OC)cc1Cl | < 70

Compound | growth inhibition at single dose [%]
Cc1[nH]c2ccccc2c1/C=N/n1c(-c2ccc(Cl)cc2Cl)cs/c1=N\CC1CCCO1 (configuration not stated) | < 70
Cc1cc(Nc2cccc(C(F)(F)F)c2)n2ncc(C#N)c2n1 | < 70
Cc1cccc(Cn2ccc(NC(=O)c3ccc4c(c3)OCO4)n2)c1 | < 70
COc1ccccc1CN1CCN2C(=O)[C@@H](Cc3ccc(O)cc3)NC(=O)[C@H]2C1 | < 70
O=C(Nc1ccc(-c2nc3ccccc3[nH]2)cc1)c1ccc(Cl)c(Cl)c1 | < 70
COc1cc(NC(C)CCCN)c2ncccc2c1 (configuration not stated) | < 70
CC(C)n1ncc2cc(C(=O)Nc3nc(-c4ccccn4)cs3)cnc21 | < 70
CCOc1cc(Cl)c(C(C)NC(=O)c2ccccc2)cc1OCC (configuration not stated) | < 70
CCOc1c(Cl)cc(CNC(C)C(O)c2ccccc2)cc1OC (configuration not stated) | < 70
COc1ccc(C2=C(c3ccc(OC)cc3)C3(c4ccccc4)C(=O)C2(c2ccccc2)C2C(=O)N(c4ccc(C)cc4)C(=O)C23)cc1 (configuration not stated) | < 70
CC(C)(C)c1ccc(C(=O)NCCOc2ccccc2Cl)cc1 | < 70
CC(NCc1ccccc1)c1cc(Cl)ccc1O (configuration not stated) | < 70
O=C(NC1CCN(c2ccc(S(=O)(=O)C(F)(F)F)cc2)CC1)C1CC1 | < 70
CCCCCCOC(=O)C1=C(C)NC(=O)NC1c1ccccc1F (configuration not stated) | < 70
Cc1nc(-c2ccccn2)nc(N2CCCC2)c1Cl | < 70
O=C(NCC1Cc2cccc(-c3ccncc3)c2O1)c1csc2c1CCCC2 (configuration not stated) | < 70
C=C(C)CCC(C)N1CCC(N2CCC(C(=O)NCCc3ccccc3)CC2)CC1 (configuration not stated) | < 70
Cc1c(C)n(CCCO)c2ncn3nc(-c4ccccc4)nc3c12 | < 70
Cc1ccc(-c2cc3c(SCC(=O)Nc4cc(C(F)(F)F)ccc4Cl)nccn3n2)cc1 | < 70
Cc1ccc(-c2cc(C(=O)Nc3ccc(S(=O)(=O)N4CCCCC4)cc3)[nH]n2)c(O)c1 | < 70
O=C(NC1CCCC1)c1ccc(N2CCC(NCc3cccc(C(F)(F)F)c3)CC2)cc1 | < 70

Compound | growth inhibition at single dose [%]
CC(Nc1ccc(Oc2cccc(F)c2)cc1)C(=O)N1CCNC1=O (configuration not stated) | < 70
Cc1cc(C(=O)Nc2ccc(Cl)cc2)c(C)n1-c1ccccc1 | < 70
CCc1nc2ccc(C(=O)NCc3ccc4c(c3)OCO4)cn2c1N(C)Cc1cccs1 | < 70
CCOC(=O)C1=C(C)N=c2sc(=Cc3cc(Cl)ccc3O)c(=O)n2C1c1ccc(OC)cc1 (configuration not stated) | < 70
FC(F)(F)c1cccc(Nc2nc(-c3ccccc3)nc3ncccc23)c1 | < 70
Cc1cc(Nc2ccc(Cl)cc2)n2nc(C(F)(F)F)nc2n1 | < 70
Cc1c(C)n(CCCO)c2ncn3nc(-c4ccc(N(C)C)cc4)nc3c12 | < 70
CCN(CC)CCNc1ncnc2c1[nH]c1ccc(Br)cc12 | < 70
O=C(Nc1ccc(N2CCCC2)cn1)c1cc(Cl)ccn1 | < 70
CN(C)Cc1ccc(CNc2ncnc3scc(-c4ccccc4)c23)cc1 | < 70
CC(=O)c1sc(NC(=O)Nc2ccc(C)cc2C)nc1C | < 70
O=C1O[C@@H](CO)CN1c1cc(F)c(C2=CCN(Cc3ccccc3)CC2)c(F)c1 | < 70
Cc1cccc2c(=O)n(CC(=O)NCc3ccc(C(=O)N4CCCCC4)cc3)cnc12 | < 70
COc1cc(C(F)(F)F)nc2ccc(C)c(N)c12 | < 70
Cc1ccc2[nH]c(C3CCCNC3)c(-c3ccncc3)c2c1 (configuration not stated) | < 70
CCOc1ccc(Nc2ccnc3cc(Cl)ccc23)cc1 | < 70
O=C(CN1CCN(C(=O)/C=C/c2sc3ccccc3c2Cl)CC1)NC1CC1 | < 70
CCNC(=O)c1nn(CC2CC2)c2c1CN(C(=O)c1cc(-c3ccccc3F)n[nH]1)CC2 | < 70
Cc1ccc2nc(Cl)c(CNCc3cccs3)cc2c1 | < 70
CC(C)(C)CN1C(=O)C(c2ccccc2)(c2ccccc2)N=C1N | < 70

Reference: the supplement of paper PMC8837787
